Key:
Assay type in all cases: in vivo
[1] = system: Amaranthus retroflexus (AMARE); assay: Herbicidal pre-emergence action (A), 1280 g/ha; details: visual grading after ca. 3 weeks vs untreated controls
Outline: (§1)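 Pre-emergence greenhouse test: seeds sown in sandy loam pots, WP or EC formulations sprayed onto covering soil as aqueous suspension/emulsion with 0.5% additive at 600 l water/ha. Damage graded visually after ca. 3 weeks versus untreated controls, 0% = as control, 100% = plants dead.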

[2] = system: Digitaria sanguinalis (DIGSA); assay: Herbicidal pre-emergence action (A), 1280 g/ha; details: visual grading after ca. 3 weeks vs untreated controls, 100% = plants have died off, 0% = as control plants
Outline: as §1

[3] = system: Echinochloa crus-galli (ECHCG); assay: Herbicidal pre-emergence action (A), 1280 g/ha; details: visual grading after ca. 3 weeks vs untreated controls, 100% = plants have died off, 0% = as control plants
Outline: as §1

Poa annua (POAAN) [4] = assay: Herbicidal pre-emergence action (A), 1280 g/ha; details: visual grading after ca. 3 weeks vs untreated controls, 100% = plants have died off, 0% = as control plants
Outline: as §1

Setaria viridis (SETVI) = assay: Herbicidal pre-emergence action (A), 1280 g/ha; details: visual grading after ca. 3 weeks vs untreated controls
Outline: as §1

[5] = system: Amaranthus retroflexus (AMARE); assay: Herbicidal post-emergence action (B), 1280 g/ha; details: rated visually after about 3 weeks vs untreated controls
Outline: (§2)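 Post-emergence greenhouse test: weeds in sandy loam treated at the one-leaf stage, 2 to 3 weeks after sowing, with WP or EC formulations plus 0.5% additive at 600 l/ha water. Visual activity versus untreated controls after about 3 weeks (100% = dead, 0% = like control).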

[6] = system: Digitaria sanguinalis (DIGSA); assay: Herbicidal post-emergence action (B), 1280 g/ha; details: rated visually after about 3 weeks vs untreated controls
Outline: as §2

[7] = system: Kochia scoparia (KCHSC; Bassia scoparia); assay: Herbicidal post-emergence action (B), 1280 g/ha
Outline: as §2

Stellaria media (STEME) [8] = assay: Herbicidal post-emergence action (B), 1280 g/ha
Outline: as §2

[9] = system: Alopecurus myosuroides (ALOMY); assay: Herbicidal pre-emergence action (A), 1280 g/ha; details: visual grading after ca. 3 weeks vs untreated controls, 100% = plants have died off, 0% = as control plants
Outline: as §1

[10] = system: Kochia scoparia (KCHSC; Bassia scoparia); assay: Herbicidal pre-emergence action (A), 1280 g/ha; details: visual grading after ca. 3 weeks vs untreated controls
Outline: as §1

Lolium rigidum (LOLRI) = assay: Herbicidal pre-emergence action (A), 1280 g/ha; details: visual grading after ca. 3 weeks vs untreated controls, 100% = plants have died off, 0% = as control plants
Outline: as §1

[11] = system: Matricaria inodora (MATIN); assay: Herbicidal pre-emergence action (A), 1280 g/ha; details: visual grading after ca. 3 weeks vs untreated controls
Outline: as §1

Stellaria media (STEME) [12] = assay: Herbicidal pre-emergence action (A), 1280 g/ha; details: visual grading after ca. 3 weeks vs untreated controls
Outline: as §1

Veronica persica (VERPE) [13] = assay: Herbicidal pre-emergence action (A), 1280 g/ha; details: visual grading after ca. 3 weeks vs untreated controls
Outline: as §1

Poa annua (POAAN) [14] = assay: Herbicidal post-emergence action (B), 1280 g/ha; details: rated visually after about 3 weeks vs untreated controls
Outline: as §2

Veronica persica (VERPE) [15] = assay: Herbicidal post-emergence action (B), 1280 g/ha
Outline: as §2

Structure (SMILES)	herbicidal effect AMARE [1]	DIGSA, herbicidal effect in percent (%) [2]	ECHCG, herbicidal effect in percent (%) [3]	POAAN, herbicidal effect in percent (%) (Poa annua (POAAN) [4])	herbicidal effect SETVI (Setaria viridis (SETVI))	herbicidal activity AMARE [5]	herbicidal activity DIGSA [6]	herbicidal effect KCHSC [7]	herbicidal effect STEME (Stellaria media (STEME) [8])	ALOMY, herbicidal effect in percent (%) [9]	herbicidal effect KCHSC [10]	LOLRI, herbicidal effect in percent (%) (Lolium rigidum (LOLRI))	herbicidal effect MATIN [11]	herbicidal effect STEME (Stellaria media (STEME) [12])	herbicidal effect VERPE (Veronica persica (VERPE) [13])	herbicidal activity POAAN (Poa annua (POAAN) [14])	herbicidal effect VERPE (Veronica persica (VERPE) [15])
Fc1ccc(-c2ccc3scnc3n2)cc1 [Example I-074, 5-(4-fluorophenyl)thiazolo[4,5-b]pyridine]	90%	100%	100%	100%	100%	90%	100%	90%	90%	–	–	–	–	–	–	–	–
CCc1cc2scnc2nc1-c1ccccc1C(F)(F)F [Example I-049]	90%	90%	100%	100%	100%	100%	90%	100%	90%	100%	100%	100%	90%	100%	100%	100%	90%
CCc1cc2sc(S)nc2nc1-c1ccccc1F [Example I-165]	90%	–	–	100%	100%	–	100%	90%	–	90%	–	–	–	90%	90%	–	90%

Reference: patent publication US20230151025A1, “SUBSTITUTED THIAZOLOPYRIDINES, SALTS THEREOF AND THEIR USE AS HERBICIDALLY ACTIVE SUBSTANCES” (Bayer Aktiengesellschaft, priority 2020, published 2023)
